Data set [1] is described as follows: pKa value by photometric titration. The class given is physicochemical.
The target of another data set is T1, Nitric oxide synthase 3 (Homo sapiens, UniProt P29474).
T1 sequence (P29474 whole entry): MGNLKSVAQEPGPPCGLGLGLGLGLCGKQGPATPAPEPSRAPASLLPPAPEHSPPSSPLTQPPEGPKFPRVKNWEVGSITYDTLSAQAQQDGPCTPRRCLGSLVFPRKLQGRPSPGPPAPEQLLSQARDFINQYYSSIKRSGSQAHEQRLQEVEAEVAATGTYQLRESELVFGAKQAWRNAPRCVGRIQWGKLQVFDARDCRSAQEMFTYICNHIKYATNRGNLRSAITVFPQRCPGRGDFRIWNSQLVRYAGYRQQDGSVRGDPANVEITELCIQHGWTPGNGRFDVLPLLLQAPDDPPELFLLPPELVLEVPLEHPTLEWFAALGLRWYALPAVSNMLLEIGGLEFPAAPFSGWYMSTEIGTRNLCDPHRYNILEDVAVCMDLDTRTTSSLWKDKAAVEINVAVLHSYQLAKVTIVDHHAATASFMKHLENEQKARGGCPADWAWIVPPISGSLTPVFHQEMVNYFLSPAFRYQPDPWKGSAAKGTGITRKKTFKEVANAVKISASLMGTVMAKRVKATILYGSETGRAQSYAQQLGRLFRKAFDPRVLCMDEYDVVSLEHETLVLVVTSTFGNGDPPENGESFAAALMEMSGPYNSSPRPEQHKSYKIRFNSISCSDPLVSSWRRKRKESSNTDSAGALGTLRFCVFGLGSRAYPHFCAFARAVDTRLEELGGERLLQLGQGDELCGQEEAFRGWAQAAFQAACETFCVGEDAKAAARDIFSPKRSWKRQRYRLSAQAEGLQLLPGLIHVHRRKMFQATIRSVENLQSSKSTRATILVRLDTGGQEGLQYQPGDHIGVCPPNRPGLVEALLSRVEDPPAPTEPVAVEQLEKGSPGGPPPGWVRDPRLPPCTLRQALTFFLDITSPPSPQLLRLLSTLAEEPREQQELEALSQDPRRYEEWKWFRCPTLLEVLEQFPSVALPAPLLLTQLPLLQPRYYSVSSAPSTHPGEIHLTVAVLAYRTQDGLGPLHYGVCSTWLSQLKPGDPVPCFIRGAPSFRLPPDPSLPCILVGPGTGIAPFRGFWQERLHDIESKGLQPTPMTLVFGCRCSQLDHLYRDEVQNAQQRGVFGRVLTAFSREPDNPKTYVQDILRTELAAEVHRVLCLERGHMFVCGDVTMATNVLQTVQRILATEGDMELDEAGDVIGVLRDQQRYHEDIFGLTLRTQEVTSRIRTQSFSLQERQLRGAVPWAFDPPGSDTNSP
Kind of data set: Inhibition of human endothelial nitric oxide synthase.

In another data set the target is Nitric oxide synthase 1 (Homo sapiens, UniProt P29475). Kind of data set: Inhibition of human neuronal nitric oxide synthase.
Chain of Nitric oxide synthase 1 (P29475 whole entry): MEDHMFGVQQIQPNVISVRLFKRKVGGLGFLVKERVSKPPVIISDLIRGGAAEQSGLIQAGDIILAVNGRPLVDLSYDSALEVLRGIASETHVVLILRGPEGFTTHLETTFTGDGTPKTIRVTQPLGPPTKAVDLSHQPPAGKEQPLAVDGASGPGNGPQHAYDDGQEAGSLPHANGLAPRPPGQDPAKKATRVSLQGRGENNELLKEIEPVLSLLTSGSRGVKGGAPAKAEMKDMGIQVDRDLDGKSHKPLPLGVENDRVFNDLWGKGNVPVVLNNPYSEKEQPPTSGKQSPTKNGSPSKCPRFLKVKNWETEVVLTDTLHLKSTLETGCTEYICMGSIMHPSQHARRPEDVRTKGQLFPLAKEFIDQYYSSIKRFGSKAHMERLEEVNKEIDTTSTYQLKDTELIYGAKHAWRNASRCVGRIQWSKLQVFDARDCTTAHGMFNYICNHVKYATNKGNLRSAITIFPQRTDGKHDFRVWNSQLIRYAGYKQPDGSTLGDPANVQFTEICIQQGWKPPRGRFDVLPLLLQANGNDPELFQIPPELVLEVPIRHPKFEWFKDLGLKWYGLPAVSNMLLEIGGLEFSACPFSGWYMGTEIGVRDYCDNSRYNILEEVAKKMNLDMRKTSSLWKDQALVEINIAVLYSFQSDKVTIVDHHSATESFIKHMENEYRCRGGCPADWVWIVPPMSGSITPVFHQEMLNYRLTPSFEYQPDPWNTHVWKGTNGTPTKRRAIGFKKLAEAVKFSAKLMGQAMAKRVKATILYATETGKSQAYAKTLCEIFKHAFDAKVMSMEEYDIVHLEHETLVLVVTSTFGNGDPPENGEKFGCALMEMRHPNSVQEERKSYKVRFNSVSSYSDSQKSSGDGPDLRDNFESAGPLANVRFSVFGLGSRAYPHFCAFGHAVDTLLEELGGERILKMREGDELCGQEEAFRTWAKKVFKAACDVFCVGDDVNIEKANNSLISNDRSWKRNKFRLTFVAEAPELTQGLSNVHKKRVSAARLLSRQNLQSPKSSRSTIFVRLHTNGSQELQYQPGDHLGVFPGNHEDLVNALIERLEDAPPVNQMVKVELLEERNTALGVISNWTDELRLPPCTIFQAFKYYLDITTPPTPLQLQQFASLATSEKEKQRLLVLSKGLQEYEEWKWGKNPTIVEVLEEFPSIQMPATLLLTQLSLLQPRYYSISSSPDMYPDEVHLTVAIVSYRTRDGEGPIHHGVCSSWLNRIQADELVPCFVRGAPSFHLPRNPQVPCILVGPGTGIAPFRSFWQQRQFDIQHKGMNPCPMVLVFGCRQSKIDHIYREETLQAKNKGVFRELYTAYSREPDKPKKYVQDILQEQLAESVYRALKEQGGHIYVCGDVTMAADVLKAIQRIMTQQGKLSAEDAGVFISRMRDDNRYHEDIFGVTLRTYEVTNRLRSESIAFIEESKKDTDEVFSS
For data set [2], the target named is Nitric oxide synthase, inducible (Homo sapiens, UniProt P35228). Briefly: Inhibition of human inducible nitric oxide synthase.
Chain of Nitric oxide synthase, inducible (P35228 whole entry): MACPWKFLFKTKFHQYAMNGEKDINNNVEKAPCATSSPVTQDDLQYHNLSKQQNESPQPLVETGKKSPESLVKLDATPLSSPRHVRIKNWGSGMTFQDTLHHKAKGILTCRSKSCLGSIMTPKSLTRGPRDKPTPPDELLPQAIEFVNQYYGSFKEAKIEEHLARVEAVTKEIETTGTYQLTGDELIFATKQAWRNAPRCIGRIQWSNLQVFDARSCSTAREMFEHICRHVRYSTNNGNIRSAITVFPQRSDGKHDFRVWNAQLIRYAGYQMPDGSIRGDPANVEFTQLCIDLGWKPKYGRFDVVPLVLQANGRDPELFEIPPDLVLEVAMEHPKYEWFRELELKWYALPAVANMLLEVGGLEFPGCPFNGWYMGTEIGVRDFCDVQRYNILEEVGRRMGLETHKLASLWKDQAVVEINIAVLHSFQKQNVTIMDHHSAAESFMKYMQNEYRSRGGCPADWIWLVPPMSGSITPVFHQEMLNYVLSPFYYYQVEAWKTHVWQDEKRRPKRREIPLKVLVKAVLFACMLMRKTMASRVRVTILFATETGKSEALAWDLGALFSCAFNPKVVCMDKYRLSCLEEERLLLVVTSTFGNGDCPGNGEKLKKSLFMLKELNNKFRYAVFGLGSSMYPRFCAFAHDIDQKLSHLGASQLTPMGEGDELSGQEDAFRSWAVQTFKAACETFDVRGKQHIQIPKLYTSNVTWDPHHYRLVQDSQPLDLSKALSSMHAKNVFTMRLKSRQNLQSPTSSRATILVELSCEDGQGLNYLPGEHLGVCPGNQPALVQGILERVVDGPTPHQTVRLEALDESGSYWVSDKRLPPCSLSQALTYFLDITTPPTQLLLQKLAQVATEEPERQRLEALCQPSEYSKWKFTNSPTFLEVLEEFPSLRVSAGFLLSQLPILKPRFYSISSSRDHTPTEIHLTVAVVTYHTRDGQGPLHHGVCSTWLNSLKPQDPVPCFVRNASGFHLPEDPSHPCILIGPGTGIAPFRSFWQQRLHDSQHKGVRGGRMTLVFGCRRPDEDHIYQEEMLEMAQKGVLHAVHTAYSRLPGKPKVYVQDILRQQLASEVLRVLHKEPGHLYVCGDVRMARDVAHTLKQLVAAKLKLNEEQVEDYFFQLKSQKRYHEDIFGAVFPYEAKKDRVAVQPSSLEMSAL

As usually defined, the pKa is the pH at which an ionisable group is half protonated. The low end stands for a group that gives up its proton readily, the high end for a group that holds its proton tightly. As a reminder, the IC50 is the point on the concentration scale where inhibition reaches its midpoint. Low readings indicate greater potency in that assay, high ones weaker potency in that assay.

Regarding `NC1=Nc2ccc(Cl)cc2[C@H]2CCC[C@@H]12`, in data set [1], the pKa was 9.4.
As for `NC1=Nc2c(F)cc(Cl)cc2[C@H]2CCC[C@@H]12`, the results for the IC50 (against Nitric oxide synthase 3; on Nitric oxide synthase 1; in data set [2]) were 14000 nM, 290 nM and 8100 nM, respectively. For the same molecule, in data set [1], the pKa is 8.2.
The corresponding values for `CNCCc1ccc2c(c1)N=C(N)[C@]1(F)CCC[C@H]21` are 79000 nM, 390 nM, 1900 nM and 7.9.
Consider `NC1=Nc2ccc(Cl)cc2[C@H]2CCC[C@@]12F`, for which the IC50 stood at 14000 nM against Nitric oxide synthase 3, 290 nM against Nitric oxide synthase 1 and 8100 nM in data set [2]. Further, the pKa in data set [1] is 7.6.
In the case of `NC1=Nc2ccccc2[C@H]2CCC[C@@H]12`, the pKa in data set [1] came to 9.7.
Take `NC1=Nc2ccccc2[C@H]2CCC[C@@]12F`: the IC50 was found to be 2700 nM against Nitric oxide synthase 3, 100 nM at Nitric oxide synthase 1 and 2100 nM in data set [2]. Further, in data set [1], the pKa is 7.9.
As to `NC1=Nc2cc(CCCNCc3cccc(Cl)c3)ccc2[C@H]2CCC[C@@]12F`, the IC50 against Nitric oxide synthase 3 came out at 38000 nM; against Nitric oxide synthase 1 it was 310 nM; in data set [2], 2200 nM. Besides, the pKa in data set [1] stood at 8.
In turn, `NC1=Nc2cc(CCCNCc3cccc(Cl)c3)ccc2[C@H]2CCC[C@@H]12` displayed a pKa in data set [1] of 9.9.
`NC1=Nc2c(ccc(F)c2F)[C@H]2CCC[C@@H]12` registered a pKa in data set [1] of 8.
On to `NC1=Nc2c(F)cccc2[C@H]2CCC[C@@]12F`, for which the results for the IC50 (against Nitric oxide synthase 3; against Nitric oxide synthase 1; in data set [2]) were 22000 nM, 590 nM and 25000 nM, respectively. The same molecule displayed a pKa in data set [1] of 6.6.
For the molecule `NC1=Nc2c(F)cccc2[C@H]2CCC[C@@H]12`, the pKa in data set [1] was determined as 8.5.
As for `CNCc1ccc2c(c1)N=C(N)[C@]1(F)CCC[C@H]21`, the half-maximal inhibitory concentration (IC50) against Nitric oxide synthase 3 was determined as 66000 nM; against Nitric oxide synthase 1, 660 nM; in data set [2], 1400 nM.

For the origin of these results see ChEMBL document CHEMBL1137842, “Fluorinated dihydroquinolines as potent n-NOS inhibitors” (Bioorg Med Chem Lett, 2004).
